Tests used:
[1] = system: Cuttings of Pelargonium interspecific: Calliope M Dark Red; assay: Comparative trial of vacuum impregnation (VI) on unrooted Pelargonium cuttings: storage, rooting, losses, acceptability; type: in vivo; settings: for % Losses after storage: stored at 8° C, losses before sticking; for % Losses / % Rooted / %Not rooted / % Acceptable YPL: 21 days after sticking; for % Acceptable YPL: YPL = young plant
Description: Comparative trials were made to investigate the effect of a method according to the present invention, that is a method preferably involving vacuum impregnation and which definitely is free from any PEF step, and a method involving a PEF step, either alone or together with an impregnation step, and of course also compared with untreated control(s). Cuttings of Pelargonium interspecific: Calliope M Dark Red was used as the testing material. When testing the method according to the second aspect of the present invention, the following vacuum impregnation parameters (protocol) were used: A pressure falling time of 10 minutes, a holding time of the obtained low pressure of 1 minute and then 15 minutes rising time when the pressure was increased again to atmospheric pressure. The minimum pressure was set at 220 mbar and trehalose 10% was used as the impregnation solution. For the PEF trial and step (not according to the present invention), the parameters used were the following: 500 V in continuous system, 250 µs pulse width and 50 PPV (pulses per volume), 0.3 KW. For the group of cuttings that was subjected only to vacuum impregnation, that is by a method according to the present invention, an additional rinsing step was also performed. Moreover, each group tested consisted of 80 unrooted cuttings, and not any repetitions were performed. When the pelargonium cuttings were received they were processed immediately. After the treatment, the groups were placed in perforated trays and kept inside slightly opened boxes. The boxes were stored 7 days at 8° C. After 7 days of storage the cuttings were evaluated and counted. The damaged (due to Botrytis), rotten or withered ones are removed. These are called losses before sticking. The rooting, losses and acceptability results were obtained 21 days after sticking. […] It should be noted that data for losses after storage were obtained after […] of storage.

[2] = system: Roses (variety: Athena); assay: Vacuum impregnation on roses, appearance during vase storage at room temperature; type: in vivo; settings: fructose 2-15 wt%, VI without PEF, versus untreated control
Description: Roses (variety: Athena) were purchased form a local distributor. The roses were transported from Kenya. The roses arrived at the test site 4 days after harvest.
The treatment according to the present invention was applied to the roses immediately after the arrival. The roses were placed vertically in an impregnation solution, making sure that the flower bud was not immersed in the impregnation solution, thus only the stem and leaves were immersed. The impregnation solution contained sugar (fructose at a concentration of 2-15 wt%). Vacuum was applied reaching a minimum pressure range of 60 - 300 mbar, and with a total treatment time of about 12 minutes.
To continue with the trial performed, after that the vacuum impregnation treatment was finished, the roses were taken out from the impregnation solution. They were then immersed in water, again excluding the flower buds, to wash the sugars from the surface and then placed in a cold room for 24 hours to recover. They were in this case not dried in any way.
After 24 hours the roses were moved to room temperature in order to evaluate the results at the end user conditions. They were stored in a vase, with only the lower part of the stems immersed in water, and the water was renewed every two days.
Roses were stored at room temperature for 13 days after the treatment (Right: roses treated according to the present invention, left: control roses, i.e. not treated).

Compound | % Losses after storage ([1]; No PEF, only VI (220 mbar)) | % Losses ([1]; No PEF, only VI) | % Rooted ([1]; No PEF, only VI) | %Not rooted ([1]; No PEF, only VI) | % Acceptable YPL ([1]; No PEF, only VI) | % Losses after storage ([1]; VI + PEF (500 V, 250 µs, 50 PPV)) | % Losses ([1]; VI + PEF) | % Rooted ([1]; VI + PEF) | %Not rooted ([1]; VI + PEF) | % Acceptable YPL ([1]; VI + PEF) | general appearance of roses ([2]; stem and leaves immersed, 13 days at room temperature) | browning and wilting of the flower buds ([2]; room temperature storage) | freshness of the treated leaves ([2]; room temperature storage)
OC[C@H]1O[C@H](O[C@H]2O[C@H](CO)[C@@H](O)[C@H](O)[C@H]2O)[C@H](O)[C@@H](O)[C@@H]1O [Trehalose 10%, trehalose] | 4% | 0% | 88% | 8% | 46% | 0% | 10% | 75% | 15% | 35% |  |  | 
O=C(CO)[C@@H](O)[C@H](O)[C@H](O)CO [sugar, fructose] |  |  |  |  |  |  |  |  |  |  | clear improvement | delayed | preserve freshness better

Reference: US20230107926A1, “A METHOD FOR TREATING A BIOLOGICAL OBJECT” (OPTICEPT TECHNOLOGIES AB, priority 2020, published 2023)
